Source: ChEMBL document CHEMBL1201862, “PubChem BioAssay data set” (2004)
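Tested at 5 concentrations; 48 h exposure; 96-well plates; endpoints linearly interpolated, else capped at highest concentration. At the GI50, growth is halved.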 Active and inactive are the calls of the source. No stated cut-off is given here; in the data, active = GI50 up to about 1.1 µM and inactive = higher.

Assays:
Assay in all cases: NCI anticancer screen, dose series, 48 h
UO-31 = test system: UO-31
SW-620 = test system: SW-620
MOLT-4 = test system: MOLT-4
K562 = test system: K562
SNB-75 = test system: SNB-75
HOP-92 = test system: HOP-92
A498 = test system: A498
SF-295 = test system: SF-295
OVCAR-4 = test system: OVCAR-4
SNB-19 = test system: SNB-19
NCI-H23 = test system: NCI-H23
EKVX = test system: EKVX
HOP-62 = test system: HOP-62
SF-268 = test system: SF-268
DU-145 = test system: DU-145
NCI/ADR-RES = test system: NCI/ADR-RES
U-251 = test system: U-251
SK-MEL-2 = test system: SK-MEL-2
M14 = test system: M14
HCC 2998 = test system: HCC 2998

Measured: GI50

O=C(O)c1ccccc1C1c2ccccc2Oc2ccccc21
inactive: UO-31 65.8 µM | SW-620 > 100 µM | MOLT-4 38.9 µM | K562 75.2 µM | SNB-75 22.6 µM | HOP-92 19.1 µM | A498 27.7 µM | SF-295 40.2 µM | OVCAR-4 69.7 µM | SNB-19 85.7 µM | NCI-H23 39.7 µM | EKVX 49.2 µM | HOP-62 41.3 µM | SF-268 28.8 µM | DU-145 46.7 µM | NCI/ADR-RES 59.7 µM | U-251 35.2 µM | SK-MEL-2 23.4 µM | M14 > 100 µM

CN(C)CCCNc1ncnc2[nH]cnc12
inactive: UO-31 > 100 µM | HCC 2998 > 100 µM | SW-620 > 100 µM | MOLT-4 > 100 µM | K562 > 100 µM | HOP-92 38.1 µM | A498 > 100 µM | SF-295 > 100 µM | OVCAR-4 > 100 µM | SNB-19 > 100 µM | NCI-H23 > 100 µM | EKVX > 100 µM | HOP-62 > 100 µM | SF-268 > 100 µM | DU-145 > 100 µM | NCI/ADR-RES > 100 µM | U-251 > 100 µM | SK-MEL-2 > 100 µM | M14 > 100 µM

Sc1ncc2[nH]nnc2n1
inactive: UO-31 > 100 µM | HCC 2998 > 100 µM | SW-620 > 100 µM | MOLT-4 > 100 µM | K562 > 100 µM | SNB-75 > 100 µM | HOP-92 > 100 µM | A498 > 100 µM | SF-295 > 100 µM | OVCAR-4 > 100 µM | SNB-19 > 100 µM | NCI-H23 > 100 µM | EKVX > 100 µM | HOP-62 > 100 µM | SF-268 > 100 µM | DU-145 > 100 µM | NCI/ADR-RES > 100 µM | U-251 > 100 µM

CC(C)=CC(=O)c1[nH]c2ccccc2c1CC(=O)NCCc1c[nH]cn1
inactive: UO-31 > 100 µM | HCC 2998 > 100 µM | SW-620 > 100 µM | MOLT-4 > 100 µM | K562 > 100 µM | SNB-75 > 100 µM | HOP-92 > 100 µM | A498 > 100 µM | SF-295 > 100 µM | OVCAR-4 > 100 µM | SNB-19 > 100 µM | NCI-H23 > 100 µM | EKVX > 100 µM | SF-268 > 100 µM | DU-145 > 100 µM | NCI/ADR-RES > 100 µM | U-251 > 100 µM | SK-MEL-2 > 100 µM | M14 > 100 µM

CC(C)CCC[C@@H](C)[C@H]1CC[C@H]2C3=C[C@H](OS(=O)(=O)O)[C@@]4(O)C[C@@H](O)CC[C@]4(C)[C@@]3(O)CC[C@]12C
inactive: UO-31 > 100 µM | HCC 2998 > 100 µM | SW-620 > 100 µM | MOLT-4 42.7 µM | K562 45.6 µM | HOP-92 > 100 µM | A498 > 100 µM | SF-295 > 100 µM | OVCAR-4 > 100 µM | SNB-19 > 100 µM | NCI-H23 > 100 µM | EKVX > 100 µM | HOP-62 > 100 µM | SF-268 > 100 µM | DU-145 > 100 µM | NCI/ADR-RES > 100 µM | U-251 > 100 µM | SK-MEL-2 > 100 µM | M14 > 100 µM

CC1CCC(O)(C(C)(C(=O)O)c2ccccc2)CC1 (stereo not given)
inactive: UO-31 > 100 µM | SW-620 > 100 µM | MOLT-4 22 µM | K562 > 100 µM | HOP-92 83.9 µM | A498 68.4 µM | SF-295 > 100 µM | OVCAR-4 > 100 µM | SNB-19 48.3 µM | NCI-H23 > 100 µM | EKVX > 100 µM | HOP-62 68.1 µM | SF-268 > 100 µM | DU-145 > 100 µM | NCI/ADR-RES > 100 µM | U-251 64 µM | SK-MEL-2 > 100 µM | M14 49 µM

CCOC(=O)c1c(N2CCCC2)[nH]c(=O)c(C(c2ccc(N(C)C)cc2)c2c(O)c(C(=O)OCC)c(N3CCCC3)[nH]c2=O)c1O
inactive: UO-31 > 100 µM | HCC 2998 > 100 µM | SW-620 > 100 µM | MOLT-4 > 100 µM | K562 > 100 µM | SNB-75 48.5 µM | HOP-92 > 100 µM | A498 > 100 µM | SF-295 > 100 µM | OVCAR-4 > 100 µM | SNB-19 > 100 µM | NCI-H23 95.5 µM | EKVX > 100 µM | HOP-62 > 100 µM | SF-268 > 100 µM | DU-145 > 100 µM | NCI/ADR-RES > 100 µM | U-251 > 100 µM | M14 > 100 µM

O=C(Nc1nccs1)NS(=O)(=O)n1cnc2ccccc21
inactive: UO-31 > 100 µM | HCC 2998 > 100 µM | SW-620 > 100 µM | MOLT-4 > 100 µM | SNB-75 > 100 µM | HOP-92 > 100 µM | A498 > 100 µM | SF-295 > 100 µM | OVCAR-4 > 100 µM | SNB-19 > 100 µM | NCI-H23 > 100 µM | EKVX > 100 µM | HOP-62 > 100 µM | SF-268 > 100 µM | DU-145 > 100 µM | NCI/ADR-RES > 100 µM | U-251 > 100 µM | SK-MEL-2 > 100 µM | M14 > 100 µM
